The values that follow come from EP0434979B1, “Peptide derivatives useful as antagonists of bombesin and gastrin-releasing peptide” (MERRELL DOW PHARMACEUTICALS INC., priority 1989, dated 1991).

Read-outs that look alike come from different tables or passages of the source. Where a SMILES comes first, the peptide text is derived from it. [ ]: non-standard residue; d: D form. The star is where a group is joined. Pheψ(CH2S)LeuNH2 = CC(C)C[C@H](SC[C@H](Cc1ccccc1)N*)C(N)=O; pGlu = O=C1CC[C@@H](C(=O)O)N1

The target of assay [1] is T1, bombesin/GRP receptor (Mus musculus, UniProt P21729).
T1 construct: Pancreata from mice were pooled and chopped at 350 µm with a tissue chopper; from tissue; host or cells: chopped mouse pancreas
T1 sequence (P21729 whole entry): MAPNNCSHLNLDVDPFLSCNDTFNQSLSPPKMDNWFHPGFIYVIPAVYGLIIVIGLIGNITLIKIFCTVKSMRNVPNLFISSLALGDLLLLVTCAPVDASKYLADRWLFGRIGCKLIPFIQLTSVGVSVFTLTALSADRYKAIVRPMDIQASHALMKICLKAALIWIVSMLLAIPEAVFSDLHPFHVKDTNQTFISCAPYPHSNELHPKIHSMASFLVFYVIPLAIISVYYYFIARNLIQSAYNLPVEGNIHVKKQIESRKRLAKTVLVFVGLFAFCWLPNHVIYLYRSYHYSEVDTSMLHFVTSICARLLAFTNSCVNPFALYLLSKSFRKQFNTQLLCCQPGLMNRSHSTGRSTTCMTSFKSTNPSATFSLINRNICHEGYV
As to the kind of experiment: Competition at the receptor for iodinated GRP (binding to murine pancreatic membranes). More on the design: species or system mice. On the procedure: The pancreata from one or more mice were pooled, minced, and homogenized in 50 mM HEPES (pH 7.4) containing 120 mM NaCl and 5 mM KCl at 4°C and centrifuged at 37,500 X g for 15 minutes. The pellet was resuspended in 50 mM HEPES (pH 7.4) containing 10 mM EDTA and 300 mM KCl and incubated for 30 minutes at 4°C. The suspension was centrifuged as above and the pellet was washed two times in 50 mM HEPES (pH 7.4) containing protease inhibitors (10 µM phenylmethylsulfonyl fluoride, 1 µM thiorphan, 40 µg/ml bacitracin, 10mM iodoacetimide and 4 µg/ml leupeptin), and again centrifuged. The tissue was then resuspended in incubation buffer (1ml per 4 mg pancreas) and incubated for 15 minutes at room temperature, then 250 µl was added to each assay tube to commence the assay. […] The assay was allowed to proceed to equilibrium for 90 minutes at room temperature. After this time, the contents of each tube was rapidly filtered over Whatman GF/B filters presoaked in 0.1% polyethyleneimine and the filters were rapidly washed three times with ice-cold 50 mM HEPES (pH 7.4). Filter-bound radioactivity was quantitated in a gamma counter. […] Affinity and maximal binding were calculated with Ligand (Biosoft, Cambridge, UK) (Figure 1 and Figure 2).
Binding was assayed in triplicate using 0.1 […] and the indicated concentrations of peptide. The abscissa (x-axis) logarithmically indicates the concentration of agonists or antagonist of the GRP receptor.

The target of assay [2] is T1, bombesin/GRP receptor. As to the kind of experiment: Phosphatidylinositol (PI) turnover in chopped murine pancreas, alone (agonism) or before GRP (antagonism). It counts as cell-based, mice. Details: key to PI Turnover Agonist / PI Turnover Antag.: "+" indicates activity; "-" indicates no activity. The settings on record: for PI Turnover Antag.: ability to block GRP-stimulated PI turnover, pretreatment with 1 uM potential antagonist; for PI Turnover Antag. / PI Turnover Agonist: murine pancreas; for PI Turnover Agonist: ability to stimulate PI turnover. On the procedure: Pancreata from mice were pooled and chopped at 350 µm with a tissue chopper. The chopped tissue was washed twice with Krebs-Hepes buffer, then incubated for 30 minutes in 37°C Krebs-Hepes buffer with fresh buffer after 15 minutes. The tissue was then incubated in this buffer containing 100-200 µCi of ³H-inositol at 37°C for 1 hour. The tissue was then washed twice and incubated for another 30 minutes in Krebs-Hepes buffer (containing 10 mM Li⁺) at 37°C with fresh buffer change after 15 minutes. Portions of the tissue mass (approximately 10 mg per assay tube) were then placed in Li⁺ buffer with protease inhibitors, (40 µg/ml bacitracin,4 µg/ml leupeptin, 4 µg/ml chymostatin, 20 µg/ml thiorphan), 0.1% BSA, and then 0.1-1000 nM peptide was added in 25 µl in a final volume of 250 µl. […] After 60 minutes at room temperature, the phosphatidylinositol turnover was terminated by the addition of 940 µl chloroform:methanol (1:2), followed by 310 µl chloroform, followed by 310 µl water. Each tube was then vortexed for 5 seconds and then centrifuged at 2500 x g for 8 minutes to separate the phases. 900 µl of the top (aqueous) phase was then mixed with 2.1 ml water and loaded onto a 0.5 ml Biorad AG-1X8 (formate) ion exchange column. 50 µl of the bottom phase (chloroform) was withdrawn from each tube and placed in a counting vial, dried, and counted in scintillation fluid. The material on the columns was washed in order with: 1) 10 ml of water 2) 5 ml of 5 mM disodium tetraborate/60 mM sodium formate 3) 10 ml of 1 M ammonium formate in 0.1 M formic acid. The final (third) wash was collected and one ml was mixed with 10 ml of Bio-Safe scintillant and counted. The ratio of these counts (total inositol phosphates) to the corresponding organic phase counts was then calculated for each sample. The ratios in the presence of test compound and/or standards were then compared to the ratios for control tubes (i.e., no stimulating agonist). Dose-response lines were constructed and the abilities of test compounds to stimulate or to inhibit GRP induced phosphatidylinositol turnover were determined by graphical analysis or with the aid of a computer program and are illustrated in Figures 3 and 4.
The abscissa (x-axis) logarithmically indicates the concentration of peptide present. The ordinate (y-axis) indicates the observed PI turnover as a percentage of control. Values are mean ± standard error of triplicate determinations; where not shown, the errors are ≤the size of the data points.
Figure 4 illustrates the ability of (Phe₁₃[CH₂s]Leu₁₄)bombesin to antagonize GRP-induced PI turnover in murine pancreas (Example 2). The abscissa (x-axis) logarithmically indicates the concentration of peptide present. The ordinate (y-axis) indicates the observed PI turnover as a percentage of control. […] Data are the mean ± standard error of triplicate determinations; where not shown, the errors are ≤ the size of the data points.

Setting [3] is: Kd (nM), receptor affinity, competition for iodinated GRP binding, murine pancreatic membranes.
[4] abbreviates: LIGAND analysis, 0.1 nM iodinated GRP, triplicate, murine pancreatic membranes (Figure 2), read-out: Kd.

As usually defined, the Kd is a measure of binding affinity in units of concentration. Take `CC(C)C[C@@H](C(N)=O)[S+]([O-])C[C@H](Cc1ccccc1)NC(=O)[C@H](Cc1c[nH]cn1)NC(=O)CNC(=O)[C@@H](NC(=O)[C@H](C)NC(=O)[C@H](Cc1c[nH]c2ccccc12)NC(=O)[C@H](CCC(N)=O)NC(=O)[C@@H]1CCC(=O)N1)C(C)C` (single isomer, unassigned) [pQ Q W A V G H FΨ[CH₂S(O)]^IL#]: the Kd at bombesin/GRP receptor [1] (setting [3]) turned out to be 2 nM.
Take `CC(C)C[C@@H](C(N)=O)[S+]([O-])C[C@H](Cc1ccccc1)NC(=O)[C@H](Cc1c[nH]cn1)NC(=O)CNC(=O)[C@@H](NC(=O)[C@H](C)NC(=O)[C@H](Cc1c[nH]c2ccccc12)NC(=O)[C@H](CCC(N)=O)NC(=O)[C@@H]1CCC(=O)N1)C(C)C` (single isomer, unassigned) [pQ Q W A V G H FΨ[CH₂S(O)]^IIL#]: the Kd at bombesin/GRP receptor [1] (setting [3]) stood at 1 nM.
Still for that read-out and setting: under `CC(C)C[C@H](SC[C@H](Cc1ccccc1)NC(=O)[C@H](Cc1c[nH]cn1)NC(=O)CNC(=O)[C@@H](NC(=O)[C@H](C)NC(=O)[C@H](Cc1c[nH]c2ccccc12)NC(=O)[C@H](CCC(N)=O)NC(=O)[C@@H]1CCC(=O)N1)C(C)C)C(N)=O` [pQ Q W A V G H FΨCH₂S]L#] stands 3 nM.
In the case of `CC(C)C[C@H](NC(=O)[C@H](CCCNC(=N)N)NC(=O)[C@H](CCC(N)=O)NC(=O)[C@@H]1CCC(=O)N1)C(=O)NCC(=O)N[C@@H](CC(N)=O)C(=O)N[C@@H](CCC(N)=O)C(=O)N[C@@H](Cc1c[nH]c2ccccc12)C(=O)N[C@@H](C)C(=O)N[C@H](C(=O)NCC(=O)N[C@@H](Cc1c[nH]cn1)C(=O)N[C@H](CS[C@@H](CC(C)C)C(N)=O)Cc1ccccc1)C(C)C` [pQ Q R L G N Q W A V G H FΨ[CH₂S]L#] ([pGlu]QRLGNQWAVGH-{Pheψ(CH2S)LeuNH2}), the “stimulation of phosphatidylinositol (PI) turnover (agonist activity)” value on bombesin/GRP receptor [2] (PI turnover as percentage of control, dose-response, triplicate (Figure 3)) is given as “no agonist activity”. At bombesin/GRP receptor [2], the “PI Turnover Antag.” value is “+” and the “PI Turnover Agonist” value is on record as “-”. Further, the “antagonism of GRP-induced PI turnover” value at bombesin/GRP receptor [2] (preincubation for 30 minutes with 1000 nM peptide, then 1-1000 nM GRP, murine pancreas (Figure 4)) is given as “reduces the stimulation of PI turnover”. At bombesin/GRP receptor [1] (setting [4]), the Kd is 3 nM. Besides, the Kd on bombesin/GRP receptor [1] (receptor affinity, competition for iodinated GRP binding, murine pancreatic membranes, read-out: Kd) stood at 3 nM.
`CCCC[C@H](SC[C@H](Cc1ccccc1)NC(=O)[C@H](Cc1c[nH]cn1)NC(=O)CNC(=O)[C@@H](NC(=O)[C@H](C)NC(=O)[C@H](Cc1c[nH]c2ccccc12)NC(=O)[C@H](CCC(N)=O)NC(=O)[C@@H]1CCC(=O)N1)C(C)C)C(N)=O` [pQ Q W A V G H FΨ [CH₂S]Z#, pGlu-Gln-Trp-Ala-Val-Gly- His-Phe Ψ(CH₂S]Nle-NH₂]: on bombesin/GRP receptor [1] (setting [3]), the Kd was 4 nM.
For `CC(C)C[C@H](NC(=O)[C@H](Cc1ccccc1)NC(=O)[C@H](Cc1c[nH]cn1)NC(=O)CNC(=O)[C@@H](NC(=O)[C@H](C)NC(=O)[C@H](Cc1c[nH]c2ccccc12)NC(=O)[C@H](CCC(N)=O)NC(=O)[C@H](CC(N)=O)NC(=O)CNC(=O)[C@H](CC(C)C)NC(=O)[C@H](CCCNC(=N)N)NC(=O)[C@H](CCC(N)=O)NC(=O)[C@@H]1CCC(=O)N1)C(C)C)C(N)=O` [(Phe₁₃Leu₁₄) bombesin, reference compound] ([pGlu]QRLGNQWAVGHFL-NH2), the Kd on bombesin/GRP receptor [1] (setting [4]) came to 0.1 nM.
For the compound `CC(=O)N[C@H](Cc1ccccc1)C(=O)N[C@@H](CCC(N)=O)C(=O)N[C@@H](Cc1c[nH]c2ccccc12)C(=O)N[C@@H](C)C(=O)N[C@H](C(=O)N[C@H](C)C(=O)N[C@@H](Cc1c[nH]cn1)C(=O)N[C@H](CS[C@@H](CC(C)C)C(N)=O)Cc1ccccc1)C(C)C` [Acf Q W A V a H FΨ[CH₂S]L#, Ac-D-Phe-Gln-Trp-Ala-Val-D-Ala-His-PheΨ[CH₂S]Leu-NH₂] (Ac-[dF]QWAV[dA]H-{Pheψ(CH2S)LeuNH2}), on bombesin/GRP receptor [2], the “PI Turnover Antag.” value is on record as “+” and the “PI Turnover Agonist” value is recorded as “-”.
